Data published in patent US9737510B2, “Indazole compounds and a process for the preparation thereof” (Council of Scientific & Industrial Research, priority 2013, dated 2017).
pIC50: −log10 of the molar value. Converted amounts (≈) assume the structure as drawn.

Legend:
MIN6 cells = test: Insulinotropic activity: insulin secretion from MIN6 cells (ELISA based assay); type: cell-based, mouse; conditions: for Insulin Secretion: standard error in bracket
Experimental: Insulinotropic activity of the NDS100178 and NDS100179 was measured by a well-optimized ELISA based Assay (Shantani Protocol #5205) described below.
Materials • MIN6Cell (source: National Center for Cell Sciences, Pune) • Mouse Insulin ELISA kit (Mercodia, 10-1247-01) • Plate Shaker (MixMatefromEppendorf) • HEPES Balanced Krebs-Ringer bicarbonate buffer (components as follows)
Method • i. Seed proliferating culture of MIN-6 cells into a 6 well plate with almost half the confluency two days before the experiment. • ii. One the day of Insulin induction experiment, the cells should become almost confluent and are in good condition. • iii. On the day of experiment, first prepare 1×KRB-HEPES buffer with 0.1% BSA (for rinse) and without BSA (for equilibration and insulin induction) as described in the materials. • iv. Prepare equilibration buffer: 1×KRB-HEPES buffer without BSA containing 3.3 mM glucose (to bring down the glucose level of all cells to the same level). For example, add 66 ul 1 M glucose stock solution to 20 ml KRB-HEPES buffer without BSA. • v. Prepare the stimulating buffer (insulin induction): 1×KRB-HEPES buffer without BSA containing the defined glucose level (in most cases, it will be 16.7 mM glucose) and the desired concentration of molecule. • vi. Pre warm all the buffers to 37° C. in the water bath (at 15 minutes). • vii. Remove media from all wells, rinse each well twice with 2 ml KRB-HEPES buffer containing 0.1% BSA. • viii. Add 2 ml of equilibration buffer in each well and incubate at 37° C. for half an hour. • ix. After the incubation add 2 ml of stimulating buffer in respective wells (properly labelled) and incubate 37° C. for 1 hour. • x. In the meanwhile, turn on the refrigerated centrifuge and set the temperature to 4° C. Take out enzyme conjugate, diluent buffer, Calibrator 0 and stripes needed (for example, two stripes for 8 samples to be run in duplicate) from Mercodia ELISA kit box (store at 4° C.) and warm up them to RT. • xi. […] Centrifuge the tubes at 600 g for 5 min. • xiii. Take out 500 ul in fresh properly labelled precooled tubes. • xiv. Now dilute the samples 1:30 in calibrator 0 i.e. add 3 ul of each sample to 87 ul of Calibrator 0 in 8 different properly labelled 0.5 ml tubes. Mix them well. • xv. Prepare 1× enzyme conjugate buffer, i.e. mix 180 ul enzyme (11×) with 1800 ul diluent buffer for ELISA of two stripes. • xvi. Add 10 ul of each sample (diluted, in duplicate) in the two adjacent wells. Be careful not to touch the bottom. • xvii. Carefully add 100 ul of Enzyme Conjugate buffer (1×) to each well and incubate on a plate shaker (eppendorf MixMate) at 800 rpm for 2 hours at 25° C. • xviii. 45 min before the incubation is over take out wash buffer, substrate TMB and Stop solution. Keep them at RT. • xix. 5 min before the incubation is over prepare 1× wash buffer (21×), i.e. 40 ml distilled water+2 ml (21×) wash buffer in a reservoir. • xx. After the incubation is over, wash each well 7 times with 350 ul wash buffer. Use a multichannel (175 ul). • xxi. After the washing add 200 uL substrate TMB solution in each well. Maintain a proper pace. • xxii. Allow to incubate for 15 min. Set the program on the plate reader, to take absorbance read at 450 nm. Add a 5 sec shake step to allow proper mixing. • xxiii. After incubation immediately add 50 ul Stop solution in each well at same pace and take absorbance read at 450 nm.
Assay conditions were kept same in all the assays. The difference in absorption-value for control experiment (no treatment with molecule) over different days is attributed to cell culture conditions. Other varying conditions are specified in the respective graphs.
[Note: If not mentioned specifically, HG=High Glucose (16.7 mM), LG=Low Glucose (3.3 mM)]

Kinetic solubility = type: physicochemical; conditions: kinetic from dmso stock
CYP3A4 = CYP3A4 (Homo sapiens, UniProt P08684); test: CYP3A4 inhibition; type: in vitro ADME
Chain of CYP3A4 (P08684 whole entry): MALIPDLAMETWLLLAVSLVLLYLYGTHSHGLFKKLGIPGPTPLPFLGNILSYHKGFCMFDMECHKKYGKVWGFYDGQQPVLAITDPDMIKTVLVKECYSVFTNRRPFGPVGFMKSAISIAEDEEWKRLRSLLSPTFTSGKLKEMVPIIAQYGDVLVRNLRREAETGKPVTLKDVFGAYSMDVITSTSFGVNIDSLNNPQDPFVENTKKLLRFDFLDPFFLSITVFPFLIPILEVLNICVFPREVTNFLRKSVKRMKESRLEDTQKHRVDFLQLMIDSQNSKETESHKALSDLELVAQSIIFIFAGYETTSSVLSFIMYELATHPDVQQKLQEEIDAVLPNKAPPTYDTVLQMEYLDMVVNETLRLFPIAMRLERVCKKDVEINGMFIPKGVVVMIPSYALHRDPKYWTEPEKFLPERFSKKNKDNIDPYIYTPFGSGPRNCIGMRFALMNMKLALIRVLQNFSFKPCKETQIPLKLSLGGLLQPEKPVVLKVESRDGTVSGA

[1] = Metabolic study and intrinsic clearance in MLM; type: in vitro ADME
Metabolic study in HLM = type: in vitro ADME
LTA4H = target: T1, LTA4H (Homo sapiens, UniProt P09960); test: LTA4H inhibition; type: biochemical; conditions: read-out: IC50 against LTA4H
T1 sequence (P09960 1-611): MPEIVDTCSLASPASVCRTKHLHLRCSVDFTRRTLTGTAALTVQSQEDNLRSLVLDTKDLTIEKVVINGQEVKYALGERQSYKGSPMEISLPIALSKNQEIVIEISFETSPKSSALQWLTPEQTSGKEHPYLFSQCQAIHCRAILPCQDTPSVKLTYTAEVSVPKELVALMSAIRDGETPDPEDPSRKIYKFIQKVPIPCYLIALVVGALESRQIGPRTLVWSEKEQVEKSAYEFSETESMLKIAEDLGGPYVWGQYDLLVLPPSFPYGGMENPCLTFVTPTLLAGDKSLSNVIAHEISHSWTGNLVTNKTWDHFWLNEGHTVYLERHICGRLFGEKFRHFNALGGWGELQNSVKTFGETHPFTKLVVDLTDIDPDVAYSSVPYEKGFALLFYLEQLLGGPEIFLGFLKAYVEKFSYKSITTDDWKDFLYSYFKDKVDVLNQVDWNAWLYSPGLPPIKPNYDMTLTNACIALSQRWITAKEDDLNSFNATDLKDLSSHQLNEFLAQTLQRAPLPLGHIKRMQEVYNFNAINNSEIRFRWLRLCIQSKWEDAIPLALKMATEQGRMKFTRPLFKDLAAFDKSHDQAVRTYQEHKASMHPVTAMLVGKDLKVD
Experimental: NDS100178 series of compound primarily activates imidazoline receptor […]. In high glucose condition this activation leads to formation of Diacylglycerol (DAG). DAG subsequently generates Arachidonic Acids (AA) in the cell. Metabolites of AA especially epoxyeicosatrienenoic acids (EETs) and hydroxyeicosatetrenoic acids (HETEs) induce exocytosis leading to increased secretion of insulin from the cells. The other major signalling pathway that can alter the glucose/DAG induced AA pool is the leukotriene pathway, that, by metabolizing AA into different leukotrienes and not EET and HETE can suppress its insulin secretion effect. Molecules that can inhibit metabolism of AA through leukotriene pathway can maintain AA pool leading to its metabolism only through EETs and HETEs and thus can enhance increase insulin secretion. One of the major enzymes in leukotriene pathway is LTA4H hydrolase that converts LTA4 into LTB4, a AA derivative that suppresses insulin secretion. A novel finding that inhibiting LTA4H can enhance insulin secretion has been established by the inventors. NDS100178 inhibits LTA4H (IC50<500 nM) while the IC50 against LTA4H target of compound 6 from patent US20040009976 Compound: 5-Chloro-2-methyl-3-(4,5-dihydro-1-H-imidazol-2-yl)-1H-indole) is above 10 uM.

SMILES | Insulin Secretion (MIN6 cells; MIN6 cells, compound 0.1 μM) | Insulin Secretion (MIN6 cells; MIN6 cells, compound 1.0 μM) | solubility kinetic (Kinetic solubility) [µM] | CYP3A4 Inhibition (CYP3A4) | Intrinsic Clearnace MLM [1] | Metabolic Study MLM Mean % PCR* [1] [%] | Metabolic Study HLM Mean % PCR* (Metabolic study in HLM) [%] | pIC50 (LTA4H) | insulin secretion from MIN6 cells in high glucose conditions (MIN6 cells; 33 uM, 1 hour, high glucose (16.7 mM), three different days) | insulin secretion over control (MIN6 cells; MIN6 cells, 10 nM) | insulin secretion over control (MIN6 cells; MIN6 cells, 50 nM) | increase in insulin secretion (MIN6 cells; MIN6 cells, 100 nM) | Insulin Secretion (MIN6 cells; MIN6 cells, compound 10.0 μM) | glucose dependence of insulinotropic activity (MIN6 cells; MIN6 cells, high glucose vs lower glucose conditions) | melting point [°C] | pIC50 (CYP3A4)
Cc1[nH]c2ccc(Cl)cc2c1C1=NCCN1 [Example-6 of Patent US20040009976, 5-Chloro-2-methyl-3-(4,5-dihydro-1-H-imidazol-2-yl)-1H-indole, reference compound] | 1.39 (0.15) ng/ml | 3.68 (2.11) ng/ml | 196 (≈ 45.9 µg/mL) | No inhibition | 21.3 μl/min/mg of protein | 64.83 | 99.11 | < 5.00 | – | – | – | – | – | – | – | –
Clc1ccc2[nH]nc(C3=NCCN3)c2c1 [NDS100178, 5-Chloro-3-(4,5-dihydro-1H-imidazol-2-yl)-1H-indazole] | 8.91 (1.6) ng/ml | 12.49 (1.9) ng/ml | 214 (≈ 47.3 µg/mL) | No inhibition | 80.8 μl/min/mg of protein | 38.84 | 79.70 | > 6.30 | significant increase in the insulin secretion | No significant difference over the control | No significant difference over the control | more than 100% | 35.09 (4.0) ng/ml | glucose dependent | 248 to 249 | –
c1ccc2c(C3=NCCN3)n[nH]c2c1 [NDS100277, 3-(4,5-dihydro-1H-imidazol-2-yl)-1H-indazole] | 11.87 (0.8) ng/ml | 14.66 (0.4) ng/ml | – | – | – | – | – | – | – | – | – | – | 20.96 (1.7) ng/ml | – | – | –
Cn1nc(C2=NCCN2)c2ccccc21 [NDS100278, 3-(4,5-dihydro-1H-imidazol-2-yl)-1-methyl-1H-indazole] | 12.43 (1.1) ng/ml | 10.80 (0.2) ng/ml | – | – | – | – | – | – | – | – | – | – | 13.16 (1.6) ng/ml | – | – | –
c1ccc2c(C3=NC4CCCCC4N3)n[nH]c2c1 (stereo not drawn) [NDS100279, 3-(3a,4,5,6,7,7a-hexahydro-1H-benzo[d]imidazol-2-yl)-1H-indazole] | 10.45 (1.6) ng/ml | 14.57 (3.0) ng/ml | – | – | – | – | – | – | – | – | – | – | 21.45 (0.9) ng/ml | – | – | –
Clc1ccc2[nH]nc(C3=NC4CCCCC4N3)c2c1 (stereo not drawn) [NDS100281, 5-chloro-3-(3a,4,5,6,7,7a-hexahydro-1H-benzo[d]imidazol-2-yl)-1H-indazole] | 14.73 (0.5) ng/ml | 16.91 (0.1) ng/ml | – | – | – | – | – | – | – | – | – | – | 20.85 (0.8) ng/ml | – | – | –
CCn1nc(C2=NCCN2)c2cc(Cl)ccc21 [NDS100282, 5-Chloro-3-(4,5-dihydro-1H-imidazol-2-yl)-1-ethyl-1H-indazole] | 13.02 (0.3) ng/ml | 18.73 (1.0) ng/ml | 202 (≈ 50.1 µg/mL) | – | 56.4 μl/min/mg of protein | 33.27 | 71.71 | – | – | – | – | – | 33.15 (0.7) ng/ml | – | – | < 5.00
Clc1ccc2c(c1)c(C1=NCCN1)nn2Cc1ccccc1 [NDS100283, 1-Benzyl-5-chloro-3-(4,5-dihydro-1H-imidazol-2-yl)-1H-indazole] | 11.35 (1.0) ng/ml | 20.08 (0.8) ng/ml | 113 (≈ 35.2 µg/mL) | No inhibition | 145.5 μl/min/mg of protein | 19.09 | 86.02 | – | – | – | – | – | 50.45 (3.8) ng/ml | – | – | –
